Results on 1 molecule are retold here after ChEMBL document CHEMBL2074362, “Lithocholic acid decreases expression of bile salt export pump through farnesoid X receptor antagonist activity” (J Biol Chem, 2002).

The target in this data set is Bile salt export pump (Homo sapiens, UniProt O95342). The experiment in a line: TP_TRANSPORTER: Taq-Man PCR in vitro, primary hepatocytes. The data set is classed as functional, cell-based, Hepatocyte.
Bile salt export pump, sequence (O95342 whole entry): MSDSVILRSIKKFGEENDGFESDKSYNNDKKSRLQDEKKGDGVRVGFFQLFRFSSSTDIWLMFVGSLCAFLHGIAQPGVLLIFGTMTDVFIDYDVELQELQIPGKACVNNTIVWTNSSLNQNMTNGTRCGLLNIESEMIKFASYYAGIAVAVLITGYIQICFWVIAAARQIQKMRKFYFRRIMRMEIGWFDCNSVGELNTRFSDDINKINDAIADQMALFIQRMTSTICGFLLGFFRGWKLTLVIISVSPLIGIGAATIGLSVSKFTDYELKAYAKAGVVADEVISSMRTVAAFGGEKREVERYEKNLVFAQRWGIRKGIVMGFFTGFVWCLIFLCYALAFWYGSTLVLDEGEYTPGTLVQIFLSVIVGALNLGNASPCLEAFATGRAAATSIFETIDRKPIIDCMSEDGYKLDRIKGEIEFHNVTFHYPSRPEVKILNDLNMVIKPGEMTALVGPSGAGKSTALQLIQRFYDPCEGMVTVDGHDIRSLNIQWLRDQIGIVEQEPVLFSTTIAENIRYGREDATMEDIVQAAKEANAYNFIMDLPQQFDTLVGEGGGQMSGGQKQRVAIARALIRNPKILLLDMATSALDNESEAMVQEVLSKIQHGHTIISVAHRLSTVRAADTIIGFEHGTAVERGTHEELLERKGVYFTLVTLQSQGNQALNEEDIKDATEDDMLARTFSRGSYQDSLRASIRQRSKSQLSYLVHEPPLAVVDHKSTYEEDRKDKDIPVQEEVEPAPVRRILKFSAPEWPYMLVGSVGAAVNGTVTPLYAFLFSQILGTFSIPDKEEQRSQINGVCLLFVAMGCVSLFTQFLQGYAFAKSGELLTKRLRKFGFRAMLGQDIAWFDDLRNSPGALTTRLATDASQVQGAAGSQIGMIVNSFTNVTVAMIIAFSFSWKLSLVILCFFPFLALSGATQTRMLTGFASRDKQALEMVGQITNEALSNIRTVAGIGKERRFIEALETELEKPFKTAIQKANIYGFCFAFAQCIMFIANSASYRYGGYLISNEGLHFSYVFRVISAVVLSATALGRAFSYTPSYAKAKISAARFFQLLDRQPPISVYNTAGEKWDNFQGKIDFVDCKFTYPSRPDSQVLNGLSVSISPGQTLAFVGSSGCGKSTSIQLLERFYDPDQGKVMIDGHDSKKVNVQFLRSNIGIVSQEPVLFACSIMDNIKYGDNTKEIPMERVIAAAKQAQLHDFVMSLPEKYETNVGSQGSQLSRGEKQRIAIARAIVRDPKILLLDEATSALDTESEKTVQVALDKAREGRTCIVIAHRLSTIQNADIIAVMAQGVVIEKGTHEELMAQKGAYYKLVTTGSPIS

Take `CC(C)c1onc(-c2c(Cl)cccc2Cl)c1COc1ccc(/C=C/c2cccc(C(=O)O)c2)c(Cl)c1`: the Activity result was “inducer [+]”.
